Results taken from publication PMC11408249, “Non-invasive in vivo imaging of changes in Collagen III turnover in myocardial fibrosis” (npj Imaging, 2024).
Residues, ends and D or L forms follow the SMILES beside them. No end group written: not given here. *: point of attachment. DOTA = O=C(O)CN1CCN(CC(=O)O)CCN(CC(=O)*)CCN(CC(=O)O)CC1

Key:
COL3 [1] = target: T1, COL3 (Homo sapiens, UniProt P02461); assay: Eu(III) time resolved fluorescence (TRF) plate binding assay on immobilised COL3; details: immobilised COL3, probe up to 15 µM
T1 sequence (P02461 154-1221 limits assumed): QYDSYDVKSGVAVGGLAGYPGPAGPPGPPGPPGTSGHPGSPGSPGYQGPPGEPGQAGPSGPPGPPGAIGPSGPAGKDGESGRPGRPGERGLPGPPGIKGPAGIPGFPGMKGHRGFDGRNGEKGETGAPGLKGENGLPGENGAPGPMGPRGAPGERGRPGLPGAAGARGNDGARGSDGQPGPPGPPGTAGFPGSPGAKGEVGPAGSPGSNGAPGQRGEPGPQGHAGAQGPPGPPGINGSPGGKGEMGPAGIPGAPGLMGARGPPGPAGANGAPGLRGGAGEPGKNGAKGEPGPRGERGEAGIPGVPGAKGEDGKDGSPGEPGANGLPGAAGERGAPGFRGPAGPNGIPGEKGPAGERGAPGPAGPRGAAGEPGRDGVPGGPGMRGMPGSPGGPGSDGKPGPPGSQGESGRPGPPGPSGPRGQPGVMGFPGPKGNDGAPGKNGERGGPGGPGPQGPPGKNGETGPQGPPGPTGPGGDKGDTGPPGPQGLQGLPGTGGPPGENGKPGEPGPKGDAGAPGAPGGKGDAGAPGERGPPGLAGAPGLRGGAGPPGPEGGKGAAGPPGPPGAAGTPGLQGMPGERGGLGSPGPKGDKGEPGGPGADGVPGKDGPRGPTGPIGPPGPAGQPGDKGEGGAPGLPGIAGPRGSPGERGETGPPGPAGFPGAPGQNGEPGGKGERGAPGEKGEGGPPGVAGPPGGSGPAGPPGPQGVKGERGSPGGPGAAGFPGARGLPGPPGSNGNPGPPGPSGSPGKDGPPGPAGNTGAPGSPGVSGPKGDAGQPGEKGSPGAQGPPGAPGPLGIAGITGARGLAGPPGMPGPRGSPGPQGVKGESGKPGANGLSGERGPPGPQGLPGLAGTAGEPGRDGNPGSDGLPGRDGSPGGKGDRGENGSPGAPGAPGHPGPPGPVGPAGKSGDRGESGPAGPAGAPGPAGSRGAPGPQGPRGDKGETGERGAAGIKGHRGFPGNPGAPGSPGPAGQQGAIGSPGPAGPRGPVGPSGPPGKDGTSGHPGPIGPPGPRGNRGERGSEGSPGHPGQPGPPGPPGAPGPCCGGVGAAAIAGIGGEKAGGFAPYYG
Method: The protocol to assess the binding affinity of the Eu(III)-labelled collagen probes to COL3 has been optimised previously. Such an assay is based on the Eu(III) TRF which detects the amount of Eu(III)-labelled probes that bind to COL3 immobilised on a multi-well plate. The assay was used to measure the COL3 binding affinity of the monomeric Eu(III)-labelled probes (expressed as the dissociation constant, Kd). The same assay was carried out with COL1, to estimate the selectivity for COL3 binding in respect to COL1. Potential unspecific binding effects associated with the assay were investigated by using two types of control experiments: (i) the scrambled versions of the Eu(III)-labelled probes were used as negative controls in TRF plate assays with immobilised collagen (either COL3 or COL1); and (ii) the collagen specific probes were assayed against elastin and bovine serum albumin (BSA) as control non-binding proteins. Briefly, increasing concentrations of the peptide (0.1–15 µM; 70 µL per well) were incubated in 96-well microplates pre-coated with the desired protein. Triplicate readings were taken per concentration and three independent experiments (plates) were used. After incubation of the peptide with the protein for one hour, the plates were washed with PBS to remove any free (unbound) peptide. […] The plates were then read using a luminescence plate reader. […]

COL3 [2] = target: T1, COL3; details: cited from earlier work
Source text: (§1) The two peptides, DARKSEVQK (Collagen Binding Probe 1, CBP1) and TEFPLRMRDWLKN (CBP2), were identified from reported protein-protein interaction studies between collagen and other proteins[41],[43]. […] The TEFPLRMRDWLKN peptide is part of the secreted protein acidic and rich cysteine (SPARC) that binds to fibrillary collagens. The binding interaction between SPARC and collagens regulates collagen fibrillogenesis ...

[3] = tested on: COL3-induced platelet aggregation; details: cited from earlier work
Source text: as §1

Collagen type III (COL3) = target: T2, Collagen type III (COL3) (Homo sapiens, UniProt P02461); assay: competition Eu(III) time-resolved fluorescence assay
T2 chain: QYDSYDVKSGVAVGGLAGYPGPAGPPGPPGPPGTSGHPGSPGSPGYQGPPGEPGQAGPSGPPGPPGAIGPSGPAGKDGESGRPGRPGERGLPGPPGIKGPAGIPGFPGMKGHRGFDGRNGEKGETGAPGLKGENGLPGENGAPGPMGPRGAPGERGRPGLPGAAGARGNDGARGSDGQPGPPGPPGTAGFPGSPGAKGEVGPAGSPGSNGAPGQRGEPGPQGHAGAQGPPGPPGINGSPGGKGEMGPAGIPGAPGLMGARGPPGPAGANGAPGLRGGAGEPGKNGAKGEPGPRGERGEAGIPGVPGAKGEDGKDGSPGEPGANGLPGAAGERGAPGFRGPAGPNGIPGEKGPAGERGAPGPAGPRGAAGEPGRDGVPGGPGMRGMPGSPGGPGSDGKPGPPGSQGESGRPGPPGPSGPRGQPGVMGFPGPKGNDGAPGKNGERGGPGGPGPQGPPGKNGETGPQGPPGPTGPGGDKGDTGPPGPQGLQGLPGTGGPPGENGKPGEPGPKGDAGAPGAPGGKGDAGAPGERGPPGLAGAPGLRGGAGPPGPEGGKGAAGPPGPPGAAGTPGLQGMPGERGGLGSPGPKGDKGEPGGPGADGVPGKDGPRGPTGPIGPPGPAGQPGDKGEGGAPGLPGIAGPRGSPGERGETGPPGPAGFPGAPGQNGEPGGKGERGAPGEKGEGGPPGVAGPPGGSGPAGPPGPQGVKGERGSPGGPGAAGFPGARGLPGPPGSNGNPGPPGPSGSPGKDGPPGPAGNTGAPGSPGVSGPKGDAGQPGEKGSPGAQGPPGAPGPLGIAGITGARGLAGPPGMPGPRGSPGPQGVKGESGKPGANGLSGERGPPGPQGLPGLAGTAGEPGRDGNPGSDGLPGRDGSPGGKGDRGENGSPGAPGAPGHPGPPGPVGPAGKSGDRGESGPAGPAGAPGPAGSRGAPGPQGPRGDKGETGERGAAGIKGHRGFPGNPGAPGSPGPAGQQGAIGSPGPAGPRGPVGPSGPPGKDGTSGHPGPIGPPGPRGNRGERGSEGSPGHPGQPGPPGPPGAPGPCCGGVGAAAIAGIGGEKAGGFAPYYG

With `CC(C)[C@H](NC(=O)[C@H](CCC(=O)O)NC(=O)[C@H](CO)NC(=O)[C@H](CCCCN)NC(=O)[C@H](CCCNC(=N)N)NC(=O)[C@H](C)NC(=O)[C@H](CC(=O)O)NC(=O)CN1CCN(CC(=O)O)CCN(CC(=O)O)CCN(CC(=O)O)CC1)C(=O)N[C@@H](CCC(N)=O)C(=O)N[C@@H](CCCCN)C(=O)O` [Eu-DOTAMA-CBP1] ({DOTA}-DARKSEVQK-OH) as the molecule, how does the “fractional occupancy (FO) at the highest concentration of probe” value (COL3 [1]) read?
The value was 74%.

For DARKSEVQK [CBP1], which “binding affinity towards COL3 compared with COL1 (in words)” value (COL3 [2]) is on record?
Its value is “higher binding affinity towards COL3 than COL1”.

And the “effect on COL3-induced platelet aggregation (in words)” value [3]?
The value was “inhibit”.

With Ac-C((Gd-DOTAMA)4 tri‑lysine scaffold)DARKSEVQK (not fully specified) [[Gd-DOTAMA]4-CBP1] as the molecule, how does the IC50 (Collagen type III (COL3)) read?
Its IC50 is 200 µM.
